Data reported in patent publication US20160228586A1, “Compounds and Their Use for Preparation of Tau Imaging Agents and Tau Imaging Formulations” (ELI LILLY AND COMPANY, priority 2013, published 2016).

Columns and labels:
native tau aggregates = assay: Film autoradiography of AD brain tissue sections; format: binding, human
Protocol: Film autoradiography of AD Brain Tissue Sections are performed in a manner consistent with previously published methods (See Zhang, W., et al. F-18 stilbenes as PET imaging agents for detecting beta-amyloid plaques in the brain. Journal of Medicinal Chemistry, 48: 5980-5988, 2005, Zhang, W., et al. F-18 stilbenes as PET imaging agents for amyloid plaque imaging. Nucl Med Biol. 2007 34(1):89-97.)
Postmortem AD diagnosed human brain sections (frontal lobe, 10 um) are covered with 0.5 ml of [^18F]T807 (in 2.5:2.5:95=DMSO:ethanol:1X-phospate buffered saline (PBS), about 20 uCi of [^18F]T807 per slide, and incubated for 60 minutes at room temperature. Then successive washing cycles are employed with 2 minutes of 1× PBS, 2 minutes of 30% ethanol/1× PBS, 2 minutes of 70% ethanol/1× PBS, and 2 minutes 1× PBS, to remove any unbound tracer. After drying under a fume hood, the sections are put on a FujiFilm radio-sensor cassette and exposed over night. The autoradiography signal is recorded in the radio-sensor sheet and is read/visualized with the FujiFilm Bio-Imaging System FLA-7000. Autoradiographic visualization of tau is observed in gray matter of postmortem AD brain tissue. See FIG. 2 which illustrates [^18F]T807 labeling of tau in post-mortem frontal lobe sections (10 um) of tau-positive human brain tissue from patients with AD, approximately 20 uCi of [^18F]T807 per slide. Strong autoradiography signal of [^18F]T807 is observed on the grey matter (GM) region, and the presence of tau in these regions are confirmed by tau-immunostaining. The non-specific or background [^18F]T807 signal is shown in the white matter region (WM) and is low.

PHF-tau = conditions: cited from Alzheimer's & Dementia 2013; cited from earlier work
[1] = Solubility of precursor in DMSO; format: physicochemical; conditions: no sonication or heating required
Text: The solubility of the precursor compound affects the ability of the compound to get into solution so that a reaction to produce [^18F]T807 can effectively occur.

## Fc1ccc(-c2ccc3c(c2)[nH]c2ccncc23)cn1 [Example T807, 7-(6-fluoro-3-pyridyl)-5H-pyrido[4,3-b]indole, reference compound]
Native tau aggregates; 1 uM of cold T807, human AD brain sections
  blocking of the [18F]T807 autoradiography signal (specificity for native tau aggregates): blocking effect

## [18F]c1ccc(-c2ccc3c(c2)[nH]c2ccncc23)cn1 [[^18F]T807, 7-(6-[^18F]fluoro-3-pyridyl)-5H-pyrido[4,3-b]indole]
Native tau aggregates; post-mortem frontal lobe sections (10 um) of tau-positive human AD brain, about 20 uCi per slide
  non-specific or background signal in the white matter region (WM): low
Native tau aggregates; post-mortem frontal lobe sections (10 um) of tau-positive human AD brain, about 20 uCi per slide, 60 minutes at room temperature
  autoradiography signal on the grey matter (GM) region: Strong
PHF-tau
  affinity and selectivity to PHF-tau: high

## CC(C)(C)OC(=O)n1c2ccncc2c2ccc(-c3ccc([N+](C)(C)C)nc3)cc21.Cc1ccc(S(=O)(=O)[O-])cc1 [formula Ia, 5-(5-(tert-butoxycarbonyl)-5H-pyrido[4,3-b]indol-7-yl)-N,N,N-trimethylpyridin-2-aminium 4-methylbenzenesulfonate]
[1]
  solubility in DMSO: readily soluble
